This experiment relates to IFN-a/Jak1 Tyk2. In words: Co-stimulation assay in lysed whole blood: IFNa (JAK1/TYK2) stimulated STAT1 phosphorylation. The following applies: Homo sapiens, 20 min, 100 ng/mL IFNa (with 10 ng/mL GM-CSF), pSTAT by flow cytometry. The experiment is classed as cell-based. A digest of the protocol:
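Lysed human whole blood (RBC-lysed, resuspended in cRPMI) pre-incubated with compound 1 h at 37 °C, then stimulated 20 min with IFNa 100 ng/mL plus GM-CSF 10 ng/mL (final). Fixed, permeabilised, stained for pSTAT1 (PE) and pSTAT5 (AF488); flow cytometry read-out, ≥5,000–10,000 cells acquired.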
Background: In flow cytometry, cells or beads pass a laser one at a time.

Molecule `CNc1cc(-c2cn(C3CCOCC3)c3ncccc23)nc2c(NC(=O)NCC#N)cnn12` [Compound 137, 1-(cyanomethyl)-3-(7-(methylamino)-5-(1-(tetrahydro-2H-pyran-4-yl)-1H-pyrrolo[2,3-b]pyridin-3-yl)pyrazolo[1,5-a]pyrimidin-3-yl)urea] displayed an IC50 below 1000 nM.

With `CNc1cc(Nc2cccc3c2OCCO3)nc2c(NC(=O)NCC3(C#N)CC3)cnn12` [Compound 138, 1-((1-cyanocyclopropyl)methyl)-3-(5-((2,3-dihydrobenzo[b][1,4]dioxin-5-yl)amino)-7-(methylamino)pyrazolo[1,5-a]pyrimidin-3-yl)urea], the 50% inhibitory concentration (IC50) is below 1000 nM.

`CNc1cc(Nc2cccc3c2OCCO3)nc2c(NC(=O)NC3CC3)cnn12` [Compound 139, 1-cyclopropyl-3-(5-((2,3-dihydrobenzo[b][1,4]dioxin-5-yl)amino)-7-(methylamino)pyrazolo[1,5-a]pyrimidin-3-yl)urea]: the concentration for half-maximal inhibition (IC50) is below 1000 nM.

The molecule `CNc1cc(Nc2cccc3c2OCCO3)nc2c(NC(=O)N(C)C)cnn12` [Compound 140, 3-(5-((2,3-dihydrobenzo[b][1,4]dioxin-5-yl)amino)-7-(methylamino)pyrazolo[1,5-a]pyrimidin-3-yl)-1,1-dimethylurea] displayed an IC50 of at least 10000 nM.

Take `CNc1cc(Nc2cccc3c2OCCO3)nc2c(NC(=O)NCC(C)(C)CO)cnn12` [Compound 141, 1-(5-((2,3-dihydrobenzo[b][1,4]dioxin-5-yl)amino)-7-(methylamino)pyrazolo[1,5-a]pyrimidin-3-yl)-3-(3-hydroxy-2,2-dimethylpropyl)urea]: the IC50 was in the range of 1000 to 10000 nM.

Molecule `CNC(=O)Nc1cnn2c(NC)cc(Nc3ccc(F)c4c3OCCO4)nc12` [Compound 142, 1-(5-((8-fluoro-2,3-dihydrobenzo[b][1,4]dioxin-5-yl)amino)-7-(methylamino)pyrazolo[1,5-a]pyrimidin-3-yl)-3-methylurea] yielded a half-inhibitory concentration (IC50) below 1000 nM.

In turn, `CNC(=O)Nc1cnn2c(NC)cc(Nc3cc(F)cc(F)c3OC)nc12` [Compound 143, 1-(5-((3,5-difluoro-2-methoxyphenyl)amino)-7-(methylamino)pyrazolo[1,5-a]pyrimidin-3-yl)-3-methylurea] had an IC50 below 1000 nM.

Take `[2H]C([2H])([2H])NC(=O)Nc1cnn2c(NC)cc(Nc3cccc4c3OCCO4)nc12` [Compound 144, 1-(5-((2,3-dihydrobenzo[b][1,4]dioxin-5-yl)amino)-7-(methylamino)pyrazolo[1,5-a]pyrimidin-3-yl)-3-(methyl-d3)urea]: the 50% inhibitory concentration (IC50) is below 1000 nM.

For `CNc1cc(Nc2cccc3c2OCCO3)nc2c(NC(=O)NCCO)cnn12` [Compound 145, 1-(5-((2,3-dihydrobenzo[b][1,4]dioxin-5-yl)amino)-7-(methylamino)pyrazolo[1,5-a]pyrimidin-3-yl)-3-(2-hydroxyethyl)urea], the IC50 was in the range of 1000 to 10000 nM.

The molecule `CNC(=O)Nc1cnn2c(NC)cc(Nc3ccccc3)nc12` [Compound 146, 1-methyl-3-(7-(methylamino)-5-(phenylamino)pyrazolo[1,5-a]pyrimidin-3-yl)urea] came in with a 50% inhibitory concentration (IC50) of 1000 to 10000 nM.

The molecule `CCNC(=O)Nc1cnn2c(NC)cc(Nc3cccc4c3OCCO4)nc12` [Compound 147, 1-(5-((2,3-dihydrobenzo[b][1,4]dioxin-5-yl)amino)-7-(methylamino)pyrazolo[1,5-a]pyrimidin-3-yl)-3-ethylurea] registered an IC50 below 1000 nM.

`CNc1cc(Nc2cccc3c2OCCO3)nc2c(NC(=O)NC(C)C)cnn12` [Compound 148, 1-(5-((2,3-dihydrobenzo[b][1,4]dioxin-5-yl)amino)-7-(methylamino)pyrazolo[1,5-a]pyrimidin-3-yl)-3-isopropylurea] yielded a half-inhibitory concentration (IC50) below 1000 nM.

`CNC(=O)Nc1cnn2c(NC)cc(Nc3ccccc3OC)nc12` [Compound 149, 1-(5-((2-methoxyphenyl)amino)-7-(methylamino)pyrazolo[1,5-a]pyrimidin-3-yl)-3-methylurea] returned a concentration for half-maximal inhibition (IC50) below 1000 nM.

Take `CNC(=O)Nc1cnn2c(NC)cc(Nc3cccc(OC)c3)nc12` [Compound 150, 1-(5-((3-methoxyphenyl)amino)-7-(methylamino)pyrazolo[1,5-a]pyrimidin-3-yl)-3-methylurea]: the IC50 is below 1000 nM.

In the case of `CNC(=O)Nc1cnn2c(NC)cc(Nc3ccc(OC)cc3)nc12` [Compound 151, 1-(5-((4-methoxyphenyl)amino)-7-(methylamino)pyrazolo[1,5-a]pyrimidin-3-yl)-3-methylurea], the IC50 is 1000 to 10000 nM.

`CNC(=O)Nc1cnn2c(NC)cc(Nc3cc(C)cc(C)c3)nc12` [Compound 152, 1-(5-((3,5-dimethylphenyl)amino)-7-(methylamino)pyrazolo[1,5-a]pyrimidin-3-yl)-3-methylurea] returned an IC50 below 1000 nM.

As for `CNC(=O)Nc1cnn2c(NC)cc(Nc3cccc4c3OCO4)nc12` [Compound 153, 1-(5-(benzo[d][1,3]dioxol-4-ylamino)-7-(methylamino)pyrazolo[1,5-a]pyrimidin-3-yl)-3-methylurea], the concentration for half-maximal inhibition (IC50) is below 1000 nM.

The molecule `CNC(=O)Nc1cnn2c(NC)cc(Nc3cccc4c3CCCO4)nc12` [Compound 154, 1-(5-(chroman-5-ylamino)-7-(methylamino)pyrazolo[1,5-a]pyrimidin-3-yl)-3-methylurea] came in with an IC50 below 1000 nM.

Turning to `CNC(=O)Nc1cnn2c(NC)cc(NC3CCCC3)nc12` [Compound 155, 1-(5-(cyclopentylamino)-7-(methylamino)pyrazolo[1,5-a]pyrimidin-3-yl)-3-methylurea], the concentration for half-maximal inhibition (IC50) fell in the range of 1000 to 10000 nM.

For the molecule `CNC(=O)Nc1cnn2c(NC)cc(Nc3ccccc3S(C)(=O)=O)nc12` [Compound 156, 1-methyl-3-(7-(methylamino)-5-((2-(methylsulfonyl)phenyl)amino)py-razolo[1,5-a]pyrimidin-3-yl)urea], the half-maximal inhibitory concentration (IC50) is at least 10000 nM.

`CNC(=O)Nc1cnn2c(NC)cc(Nc3cccc4c3OCCC4)nc12` [Compound 157, 1-(5-(chroman-8-ylamino)-7-(methylamino)pyrazolo[1,5-a]pyrimidin-3-yl)-3-methylurea] had a half-inhibitory concentration (IC50) below 1000 nM.

`CNC(=O)Nc1cnn2c(NC)cc(Nc3cc(F)cc4c3OCCC4)nc12` [Compound 158, 1-(5-((6-fluorochroman-8-yl)amino)-7-(methylamino)pyrazolo[1,5-a]pyrimidin-3-yl)-3-methylurea] returned a half-inhibitory concentration (IC50) below 1000 nM.

On to `CNC(=O)Nc1cnn2c(NC)cc(N(C)c3ccccc3)nc12` [Compound 159, 1-methyl-3-(5-(methyl(phenyl)amino)-7-(methylamino)pyrazolo[1,5-a]pyrimidin-3-yl)urea], for which the half-inhibitory concentration (IC50) was at least 10000 nM.

In turn, `CNC(=O)Nc1cnn2c(NC)cc(Nc3cccc4ccccc34)nc12` [Compound 160, 1-methyl-3-(7-(methylamino)-5-(naphthalen-1-ylamino)pyrazolo[1,5-a]pyrimidin-3-yl)urea] displayed an IC50 below 1000 nM.

As to `CNC(=O)Nc1cnn2c(NC)cc(Nc3ccccc3Oc3ccccc3)nc12` [Compound 161, 1-methyl-3-(7-(methylamino)-5-((2-phenoxyphenyl)amino)pyrazolo[1,5-a]pyrimidin-3-yl)urea], the IC50 fell in the range of 1000 to 10000 nM.

For `CNC(=O)Nc1cnn2c(NC)cc(Nc3ccccc3OC(C)C)nc12` [Compound 162, 1-(5-((2-isopropoxyphenyl)amino)-7-(methylamino)pyrazolo[1,5-a]pyrimidin-3-yl)-3-methylurea], the half-inhibitory concentration (IC50) is 1000 to 10000 nM.

By IC50 is commonly meant the midpoint of a concentration-inhibition curve. The low end stands for greater potency, the high end for weaker potency.

Source of the values: patent US11753411B2, “Substituted pyrazolo[1,5-a]pyrimidines as TYK2 pseudokinase ligands” (Ventyx Biosciences, Inc., priority 2019, dated 2023).
